In patent publication US20260337656A1, “METHODS OF SYNTHESIZING PEPTIDES WITH FREE N-TERMINAL CYSTEINE AND PRODUCTS THEREOF” (OHIO STATE INNOVATION FOUNDATION, priority 2022, published 2026):
No end group written: not given here.

Legend:
A. sobria ProAP [1] = target: T1, A. sobria ProAP (Aeromonas sobria, UniProt P46547); experiment: ProAP activity assay (kinetic constants of A. sobria ProAP against selected peptide substrates); assay type: biochemical; conditions: role: substrate; for kcat/KM: PBS pH 7.4, 2 mM DTT, 0-500 μM peptide, 0.5-25 nM ProAP, mean ± SD of three independent sets of experiments; for change in catalytic activity on replacement of His at P3′ with Gly or Ser: peptides 1 and 9 or peptides 3 and 6 compared; for decrease in catalytic activity on substitution of Ala for Gly at P2′: peptide 6 compared with 9, peptide 10 compared with 8
T1 sequence (P46547 whole entry, added parts left off): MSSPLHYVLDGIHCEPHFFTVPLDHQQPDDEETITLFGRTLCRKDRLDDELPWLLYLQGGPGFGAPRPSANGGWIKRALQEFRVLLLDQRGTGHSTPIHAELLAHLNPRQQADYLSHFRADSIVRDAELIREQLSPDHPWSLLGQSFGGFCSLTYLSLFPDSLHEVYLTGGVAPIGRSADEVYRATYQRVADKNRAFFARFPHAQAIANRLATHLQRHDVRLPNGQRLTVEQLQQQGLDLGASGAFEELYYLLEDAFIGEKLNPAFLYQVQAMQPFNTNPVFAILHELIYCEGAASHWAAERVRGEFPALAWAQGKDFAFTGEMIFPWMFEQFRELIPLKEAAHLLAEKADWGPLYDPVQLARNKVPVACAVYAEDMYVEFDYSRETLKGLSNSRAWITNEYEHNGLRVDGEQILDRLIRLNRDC
Experimental: A typical assay reaction (total volume of 100 μL) contained PBS (10 mM Na2HPO4, 1.8 mM KH2PO4, 137 mM NaCl, 2.7 mM KCl, 2 mM DTT pH 7.4) and 0-500 μM peptide substrate. The reaction was initiated by the addition of ProAP (final concentration of 0.5-25 nM) and quenched after 5-30 min by the addition of 100 μL of 10% TFA. The reaction mixture was centrifuged at 15,000 rpm in a microcentrifuge for 5 min, and the clear supernatant was analyzed on a Waters Acquity UPLC-MS equipped with a BEH C18 column (1.7 μm, 2.1 mm I.D., 100 mm length). The column was eluted with a linear gradient of acetonitrile (0-25% over 8 min) in water containing 0.05% TFA. The percentage of substrate-to-product conversion was determined by comparing the peak areas of the remaining substrate and the reaction product (monitored at 280 nm) and kept at ≤20%. The initial rates were calculated from the conversion percentages and plotted versus [S]. Data fitting against the Michaelis-Menten equation V=Vmax[S]/(KM+[S]) or the simplified equation V=kcat[E][S]/KM (when KM>>[S]) gave the kinetic constants kcat, KM, and/or kcat/KM.
To confirm the screening results, we individually synthesized a panel of peptides and determined their kinetic properties toward A. sobria ProAP (Table 1). Peptides 1-6 are representative (preferred) sequences selected from the library, while peptide 7 is the consensus sequence based on the screening results. Peptide 8 is a variant of peptide 7, containing a proline (instead of a lysine) at the P5′ position. We anticipated that a proline residue at this position would improve the proteolytic stability of the peptide. Peptide 9 is a variant of peptide 6 (substitution of Gly for Ala at the P2′ position) and was designed to test the importance of a Gly residue at the P2′ position. Peptide 10 is also a variant of peptide 6 but contains a Pro at position P5′ (in place of Lys) to impart proteolytic stability. Peptide 11 is derived from a colorless bead during library screening (Table C) and expected to be a poor substrate of ProAP (“negative” control). All peptides contained a Tyr at the P6′ position, to facilitate concentration measurement as well as monitoring the enzymatic reactions by UPLC (at 280 nm).

A. sobria ProAP [2] = target: T1, A. sobria ProAP; experiment: Proline removal from peptide 8 by ProAP before N-terminal labeling (UPLC-MS); assay type: biochemical
Experimental: Peptide (100 μM) was incubated with ProAP (4 μM) in 20 mM Tris, pH 8.5, 100 mM NaCl for 1 h at 37° C. One half of the reaction (40 μL) was set aside for later UPLC-MS analysis, while the other half was mixed with 40 μL of FAM-CO-SR (400 μM), sodium 2-mercaptoethanesulfonate (2 mM), and TCEP (2.5 mM) in PBS (H 7.5). The mixture was incubated at room temperature for 5 h and analyzed by UPLC-MS.
We first tested the feasibility of generating an N-terminal cysteine by ProAP and specific N-terminal conjugation with a peptide as substrate. […] The reaction mixture was next treated with an excess of fluorescein 2-mercaptoethanesulfonate thioester (FAM-CO-SR; 4 equivalents) in the presence of 2-mercaptoethanesulfonate (2-MES) and TCEP in a phosphate buffer (pH 7.5).

## PCGGKAY-NH2 [Peptide 1, PCGGKAY]
A. sobria ProAP [1]
  kcat/KM: 7.0 ± 1.2 ×10^5 M^−1 s^−1
  change in catalytic activity on replacement of His at P3′ with Gly or Ser: ≤ 1.3 fold

## PCGHKAY-NH2 [Peptide 9, PCGHKAY]
A. sobria ProAP [1]
  kcat/KM: 7.2 ± 2.6 ×10^5 M^−1 s^−1

## PCSHKGY-NH2 [Peptide 4, PCSHKGY]
A. sobria ProAP [1]
  kcat/KM: 3.2 ± 0.1 ×10^5 M^−1 s^−1

## PCEFTRY-NH2 [Peptide 5, PCEFTRY]
A. sobria ProAP [1]
  kcat/KM: 3.2 ± 0.9 ×10^5 M^−1 s^−1

## PCGHKPY-NH2 [Peptide 8, PCGHKPY]
A. sobria ProAP [1]
  kcat/KM: 8.3 ± 3.2 ×10^5 M^−1 s^−1
A. sobria ProAP [2]; role: substrate, 100 μM peptide, 4 μM ProAP, 60 min
  disappearance of peptide on treatment with ProAP: complete disappearance

## O=C(O)CCP(CCC(=O)O)CCC(=O)O [TCEP, tris(carboxyethyl)phosphine, reference compound]
A. sobria ProAP [2]; role: inhibitor
  inhibition of A. sobria ProAP activity: strongly inhibits

## PCASKAY-NH2 [Peptide 3, PCASKAY]
A. sobria ProAP [1]
  kcat/KM: 3.8 ± 0.4 ×10^5 M^−1 s^−1
  change in catalytic activity on replacement of His at P3′ with Gly or Ser: ≤ 1.3 fold

## PCAHKAY-NH2 [Peptide 6, PCAHKAY]
A. sobria ProAP [1]
  decrease in catalytic activity on substitution of Ala for Gly at P2′: 2- to 3 fold

## PCAHKPY-NH2 [Peptide 10, PCAHKPY]
A. sobria ProAP [1]
  kcat/KM: 2.8 ± 0.8 ×10^5 M^−1 s^−1
  decrease in catalytic activity on substitution of Ala for Gly at P2′: 2- to 3 fold

## PCGHKKY-NH2 [Peptide 7, PCGHKKY]
A. sobria ProAP [1]
  kcat/KM: 8.2 ± 0.7 ×10^5 M^−1 s^−1

## PCHDETY-NH2 [Peptide 11, PCHDETY]
A. sobria ProAP [1]
  kcat/KM: 0.038 ± 0.010 ×10^5 M^−1 s^−1
A. sobria ProAP [1]; negative control compared with peptides 1-10
  less active than peptides 1-10: ~ 2 orders of magnitude

## PCGSSKY-NH2 [Peptide 2, PCGSSKY]
A. sobria ProAP [1]
  kcat/KM: 5.8 ± 1.0 ×10^5 M^−1 s^−1
